Measurements: ChEMBL document CHEMBL3885881, “DrugMatrix”

Species on record: Rattus norvegicus
Assay: DrugMatrix - Regimen: Daily Repeat
Type: toxicity, organism-based, Sprague-Dawley
Parameters: regimen Daily Repeat, gender Male, age 6-8 weeks
Conditions: in vivo, sc, route subcutaneous, […]; for ABSOLUTE BASOPHIL / ABSOLUTE EOSINOPHIL / ABSOLUTE LYMPHOCYTE / ABSOLUTE MONOCYTE / ABSOLUTE SEGMENTED NEUTROPHIL / BASOPHIL / EOSINOPHIL / ERYTHROCYTE COUNT / HEMATOCRIT / HEMOGLOBIN / LEUKOCYTE COUNT / LYMPHOCYTE / MEAN CORPUSCULAR HEMOGLOBIN / MEAN CORPUSCULAR VOLUME / MONOCYTE / NEUTROPHIL / NUCLEATED RED BLOOD CELLS / PLATELET COUNT: tissue Blood; for ALANINE AMINOTRANSFERASE / ALBUMIN / ALKALINE PHOSPHATASE / ASPARTATE AMINOTRANSFERASE / BLOOD UREA NITROGEN / CARBON DIOXIDE / CHLORIDE / CHOLESTEROL / CREATINE PHOSPHOKINASE / CREATININE / GLUCOSE / LACTATE DEHYDROGENASE / LIPASE / PHOSPHORUS / POTASSIUM / SODIUM / TOTAL BILIRUBIN / TOTAL PROTEIN / URIC ACID: tissue Plasma
[1] = 50 mg/kg, 120 h, dose level Low, time 5 day
[2] = 450 mg/kg, 72 h, dose level M2, time 3 day
[3] = 450 mg/kg, 120 h, dose level M2, time 5 day

CCCCCCCCc1ccc(O)cc1 [4-OCTYLPHENOL]
ABSOLUTE BASOPHIL [1]: 0 CELLS/uL | ABSOLUTE EOSINOPHIL [1]: 65.33 CELLS/uL | ABSOLUTE LYMPHOCYTE [1]: 9619.33 CELLS/uL | ABSOLUTE MONOCYTE [1]: 226 CELLS/uL | ABSOLUTE SEGMENTED NEUTROPHIL [1]: 589.33 CELLS/uL | BASOPHIL [1]: 0% | EOSINOPHIL [1]: 0.67% | ERYTHROCYTE COUNT [1]: 5.5 x10E6/uL | HEMATOCRIT [1]: 35.3% | HEMOGLOBIN [1]: 13.8 G/DL | LEUKOCYTE COUNT [1]: 10.5 x10E3/uL | LYMPHOCYTE [1]: 91.33% | MEAN CORPUSCULAR HEMOGLOBIN [1]: 25.17 pg | MEAN CORPUSCULAR VOLUME [1]: 64.33 fL | MONOCYTE [1]: 2.33% | NEUTROPHIL [1]: 5.67% | NUCLEATED RED BLOOD CELLS [1]: 0 /100WBC | PLATELET COUNT [1]: 1190 x10E3/uL | ALANINE AMINOTRANSFERASE [1]: 45.33 u/L | ALBUMIN [1]: 3.2 G/DL | ALKALINE PHOSPHATASE [1]: 276.67 u/L | ASPARTATE AMINOTRANSFERASE [1]: 80 u/L | BLOOD UREA NITROGEN [1]: 15 mg/dL | CARBON DIOXIDE [1]: 29.67 mmol/L | CHLORIDE [1]: 100 MEQ/L | CHOLESTEROL [1]: 78 mg/dL | CREATINE PHOSPHOKINASE [1]: 339.67 u/L | CREATININE [1]: 0.16 mg/dL | GLUCOSE [1]: 161.33 mg/dL | LACTATE DEHYDROGENASE [1]: 367 u/L | LIPASE [1]: 9 u/L | PHOSPHORUS [1]: 12.2 mg/dL | POTASSIUM [1]: 6.42 MEQ/L | SODIUM [1]: 141.23 MEQ/L | TOTAL BILIRUBIN [1]: 0.1 mg/dL | TOTAL PROTEIN [1]: 5.57 G/DL | URIC ACID [1]: 1.5 mg/dL | ABSOLUTE BASOPHIL [2]: 0 CELLS/uL | ABSOLUTE EOSINOPHIL [2]: 58 CELLS/uL | ABSOLUTE LYMPHOCYTE [2]: 8257.67 CELLS/uL | ABSOLUTE MONOCYTE [2]: 28.33 CELLS/uL | ABSOLUTE SEGMENTED NEUTROPHIL [2]: 256 CELLS/uL | BASOPHIL [2]: 0% | EOSINOPHIL [2]: 0.67% | ERYTHROCYTE COUNT [2]: 5.23 x10E6/uL | HEMATOCRIT [2]: 32.2% | HEMOGLOBIN [2]: 12.73 G/DL | LEUKOCYTE COUNT [2]: 8.6 x10E3/uL | LYMPHOCYTE [2]: 96% | MEAN CORPUSCULAR HEMOGLOBIN [2]: 24.37 pg | MEAN CORPUSCULAR VOLUME [2]: 61.63 fL | MONOCYTE [2]: 0.33% | NEUTROPHIL [2]: 3% | NUCLEATED RED BLOOD CELLS [2]: 0 /100WBC | PLATELET COUNT [2]: 1100 x10E3/uL | ALANINE AMINOTRANSFERASE [2]: 61 u/L | ALBUMIN [2]: 3.07 G/DL | ALKALINE PHOSPHATASE [2]: 305.67 u/L | ASPARTATE AMINOTRANSFERASE [2]: 93.67 u/L | BLOOD UREA NITROGEN [2]: 9.67 mg/dL | CARBON DIOXIDE [2]: 24 mmol/L | CHLORIDE [2]: 94 MEQ/L | CHOLESTEROL [2]: 75.33 mg/dL | CREATINE PHOSPHOKINASE [2]: 340.33 u/L | CREATININE [2]: 0.3 mg/dL | GLUCOSE [2]: 117.67 mg/dL | LACTATE DEHYDROGENASE [2]: 409.67 u/L | LIPASE [2]: 9 u/L | PHOSPHORUS [2]: 10.37 mg/dL | POTASSIUM [2]: 5.55 MEQ/L | SODIUM [2]: 137.75 MEQ/L | TOTAL BILIRUBIN [2]: 0.1 mg/dL | TOTAL PROTEIN [2]: 5.1 G/DL | URIC ACID [2]: 0.63 mg/dL | ABSOLUTE BASOPHIL [3]: 0 CELLS/uL | ABSOLUTE EOSINOPHIL [3]: 224.33 CELLS/uL | ABSOLUTE LYMPHOCYTE [3]: 13520.67 CELLS/uL | ABSOLUTE MONOCYTE [3]: 303.33 CELLS/uL | ABSOLUTE SEGMENTED NEUTROPHIL [3]: 3318.33 CELLS/uL | BASOPHIL [3]: 0% | EOSINOPHIL [3]: 1.33% | ERYTHROCYTE COUNT [3]: 5.94 x10E6/uL | HEMATOCRIT [3]: 36.27% | HEMOGLOBIN [3]: 14.17 G/DL | LEUKOCYTE COUNT [3]: 17.37 x10E3/uL | LYMPHOCYTE [3]: 78% | MEAN CORPUSCULAR HEMOGLOBIN [3]: 23.97 pg | MEAN CORPUSCULAR VOLUME [3]: 61.27 fL | MONOCYTE [3]: 1.67% | NEUTROPHIL [3]: 19% | NUCLEATED RED BLOOD CELLS [3]: 0 /100WBC | PLATELET COUNT [3]: 1864.67 x10E3/uL | ALANINE AMINOTRANSFERASE [3]: 43.33 u/L | ALBUMIN [3]: 3.17 G/DL | ALKALINE PHOSPHATASE [3]: 326.67 u/L | ASPARTATE AMINOTRANSFERASE [3]: 82.67 u/L | BLOOD UREA NITROGEN [3]: 14 mg/dL | CARBON DIOXIDE [3]: 25.33 mmol/L | CHLORIDE [3]: 102.67 MEQ/L | CHOLESTEROL [3]: 71.67 mg/dL | CREATINE PHOSPHOKINASE [3]: 343 u/L | CREATININE [3]: 0.19 mg/dL | GLUCOSE [3]: 162.33 mg/dL | LACTATE DEHYDROGENASE [3]: 384.67 u/L | LIPASE [3]: 9.67 u/L | PHOSPHORUS [3]: 12.93 mg/dL | POTASSIUM [3]: 7.17 MEQ/L | SODIUM [3]: 141.23 MEQ/L | TOTAL BILIRUBIN [3]: 0.13 mg/dL | TOTAL PROTEIN [3]: 5.4 G/DL | URIC ACID [3]: 2.67 mg/dL
